Consider five compounds from publication PMC11256326, “Discovery of Heparin Mimetic, Potent, and Selective Inhibitors of Human Clotting Factor XIIIa” (ACS Omega, 2024).

In this assay the target is T1, FXIIIa (Homo sapiens, UniProt P00488).
T1 construct: purchased Haematologic Technologies; host or cells: human plasma
T1 sequence (P00488 39-732 limits assumed): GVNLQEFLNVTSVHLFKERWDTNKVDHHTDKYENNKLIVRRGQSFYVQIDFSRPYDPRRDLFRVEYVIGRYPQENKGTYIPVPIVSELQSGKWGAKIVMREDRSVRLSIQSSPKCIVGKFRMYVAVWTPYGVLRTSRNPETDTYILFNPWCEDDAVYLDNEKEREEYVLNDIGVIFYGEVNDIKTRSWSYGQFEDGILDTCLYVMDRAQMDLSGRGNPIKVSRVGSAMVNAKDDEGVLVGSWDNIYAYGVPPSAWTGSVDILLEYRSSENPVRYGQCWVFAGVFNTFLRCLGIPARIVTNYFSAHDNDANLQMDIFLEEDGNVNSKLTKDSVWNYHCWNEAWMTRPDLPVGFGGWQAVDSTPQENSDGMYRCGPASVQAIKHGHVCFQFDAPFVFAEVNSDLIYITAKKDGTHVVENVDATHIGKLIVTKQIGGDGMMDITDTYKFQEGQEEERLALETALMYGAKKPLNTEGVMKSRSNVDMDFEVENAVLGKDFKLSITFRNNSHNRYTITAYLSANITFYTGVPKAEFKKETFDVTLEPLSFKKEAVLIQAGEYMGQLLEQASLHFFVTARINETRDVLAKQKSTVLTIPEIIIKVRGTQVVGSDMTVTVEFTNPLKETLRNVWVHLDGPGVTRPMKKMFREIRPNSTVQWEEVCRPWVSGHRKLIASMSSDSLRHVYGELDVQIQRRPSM
Nature of the assay: bisubstrate, fluorescence-based trans-glutamination assay. In kind it is biochemical. Conditions: for HS (Hill slope), FXIIIa inhibition: logistic fit eq 1; for IC50: pH 7.4, 37 °C, substrates dansylcadaverine and N,N-dimethylcasein. The source says: A series of 27 sulfonated molecules (Figure 3) was screened for inhibition of human FXIIIa using a modified bisubstrate, fluorescence-based trans-glutamination assay, as described earlier.[36],[49] Dansylcadaverine and N,N-dimethylcasein were used as two substrates, which upon FXIIIa-dependence conjugation show a marked increase in fluorescence at 550 nm (λEX = 360 nm). The sulfonated molecules were structurally diverse given their number of anionic groups (mono- (inhibitors 24–27) to octa- (inhibitor 9)), number of building blocks (monomeric (molecules 26–29) to […] (inhibitor 14)), and the nature of the building block of oligomeric derivatives (benzamide derivatives (inhibitors 3–10, 24, and 25), triazine derivatives (inhibitors 11–14), and azo-naphthalene derivatives (molecules 15–22), and ureido-naphthalene derivative (23)) (Figure 3).
To measure the potency and efficacy of these inhibitors, the dose-dependence of FXIIIa inhibition was evaluated using logistic eq 1 (Table 1). The potency of inhibition refers to the IC50 (x-axis), whereas the efficacy refers to the net change in residual FXIIIa activity (ΔY%) (y-axis). Iodoacetamide, a nonselective inhibitor of thiol-containing enzymes, was used as a positive control.
To evaluate the effect of sulfonated molecules on human FXIIIa, a bisubstrate, fluorescence-based trans-glutamination assay was performed as we reported previously.[36],[49] Generally, 1 μL of the sulfonated molecule was diluted with 87 μL of pH 7.4 buffer (50 mM Tris-HCl, 1 mM CaCl2, 100 mM NaCl, and 2 mg/mL N,N-dimethylcasein) and 5 μL dithiothreitol (20 mM) at 37 °C followed by the addition of 2 μL of human FXIIIa (0.3 μM) and incubation for 10 min. The activity of FXIIIa was monitored following the addition of 5 μL of dansylcadaverine (2 mM) by measuring the initial rate of increase in fluorescence emission (λEx. = 360 nm and λEm. = 550 nm). Relative residual FXIIIa activity at each concentration of the inhibitor was calculated from the ratio of FXIIIa activity in the presence and absence of the inhibitor. Logistic eq 1 was used to fit the concentration dependence of residual FXIIIa activity to obtain the potency (IC50) and efficacy (ΔY%) of inhibition. [drawing 1] 1
This equation defines Y as the ratio of residual FXIIIa activity with the inhibitor present compared to its absence. YM represents the maximum possible value of residual FXIIIa activity, while YO denotes the minimum possible value. IC50 signifies the concentration of the inhibitor causing 50% enzyme activity inhibition, and HS represents the Hill slope. Determination of YM, YO, IC50, and HS values is achieved through nonlinear curve fitting of the experimental data.

As for `Nc1c(/N=N/c2ccc(Nc3nc(Cl)nc(Nc4cccc(S(=O)(=O)O)c4)n3)cc2S(=O)(=O)O)c(S(=O)(=O)O)cc2c(O)c(/N=N/c3ccc(Nc4nc(Cl)nc(Nc5cccc(S(=O)(=O)O)c5)n4)cc3S(=O)(=O)O)ccc12` [compound 14], the “HS (Hill slope), FXIIIa inhibition” value was found to be 1.1 ± 0.1 and the IC50 was 5.1 ± 0.3 µM.
Regarding `COc1cc(-c2ccc(/N=N/c3ccc4c(S(=O)(=O)O)cc(S(=O)(=O)O)c(N)c4c3O)c(OC)c2)ccc1/N=N/c1ccc2c(S(=O)(=O)O)cc(S(=O)(=O)O)c(N)c2c1O` [compound 19], the “HS (Hill slope), FXIIIa inhibition” value is given as 1.4 ± 0.4 and the midpoint of inhibition, the IC50, lay at 13.9 ± 2.6 µM.
For the compound `Cc1cc(-c2ccc(/N=N/c3ccc4c(S(=O)(=O)O)cc(S(=O)(=O)O)c(N)c4c3O)c(C)c2)ccc1/N=N/c1ccc2c(S(=O)(=O)O)cc(S(=O)(=O)O)c(N)c2c1O` [compound 18], the “HS (Hill slope), FXIIIa inhibition” value was found to be 1.5 ± 0.6.
Consider `Nc1c(/N=N/c2ccc(S(=O)(=O)CCOS(=O)(=O)O)cc2)c(S(=O)(=O)O)cc2cc(S(=O)(=O)O)c(/N=N/c3ccc(S(=O)(=O)CCOS(=O)(=O)O)cc3)c(O)c12` [compound 16], for which the “HS (Hill slope), FXIIIa inhibition” value is listed as 0.8 ± 0.1 and inhibition was half-maximal at 2.4 ± 0.5 µM (IC50).
With `Nc1c(S(=O)(=O)O)cc(Nc2ccc(Nc3nc(Cl)nc(Nc4ccccc4S(=O)(=O)O)n3)c(S(=O)(=O)O)c2)c2c1C(=O)c1ccccc1C2=O` [compound 13], the “HS (Hill slope), FXIIIa inhibition” value was 0.7 ± 0.03 and it took 3.1 ± 0.3 µM to reach half-maximal inhibition (IC50).

A word on the IC50: it is the concentration at which inhibition is half-maximal. Lower therefore signals greater potency.
